The values below come from ChEMBL document CHEMBL4725394 (J Med Chem, 2020).

pEC50: −log10 of the molar value.

Series [1] has as its target T1, Free fatty acid receptor 1 (Homo sapiens, UniProt O14842). The series is described as follows: Agonist activity at human GPR40 expressed in CHO cells incubated for 60 mins by FLIPR based Ca2+ mobilization assay. The format is functional, cell-based.
Series [2] concerns the target T1, Free fatty acid receptor 1. The series is described as follows: Agonist activity at human GPR40 expressed in CHO cells incubated for 60 mins by FLIPR based Ca2+ mobilization assay relative to gamma-linolenic acid. Format: functional, cell-based. The settings on record: filed as agonist. In general terms: Calcium assays in cells follow changes in intracellular calcium, usually with a dye or a luminescent sensor.

Series [3] in a line: Cytotoxicity in human HepG2 cells assessed as intracellular ATP content level at 30 uM by ATPlite-M assay relative to control. Format: cell-based. The settings on record: time 1 day, read-out: Activity. Background: Cellular ATP, detected with luciferase, serves as a proxy for viable cell number.
A further series has as its system HepG2. The series is described as follows: Cytotoxicity in human HepG2 cells assessed as caspase-3/7 activity level at 30 uM by Caspase-GloTM 3/7 assay relative to staurosporine. The settings on record: hepg2, 24 h, time 1 day. The format is cell-based.

T1 sequence (O14842 whole entry): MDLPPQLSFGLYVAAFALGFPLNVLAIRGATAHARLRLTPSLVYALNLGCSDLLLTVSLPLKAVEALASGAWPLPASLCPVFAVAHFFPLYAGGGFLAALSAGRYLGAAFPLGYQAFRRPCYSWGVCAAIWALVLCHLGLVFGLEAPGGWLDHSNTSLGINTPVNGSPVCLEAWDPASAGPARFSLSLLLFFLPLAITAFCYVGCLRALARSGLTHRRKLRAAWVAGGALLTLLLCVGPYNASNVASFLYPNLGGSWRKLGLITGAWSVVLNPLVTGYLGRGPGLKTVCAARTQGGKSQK

For orientation: pEC50 means the negative decadic logarithm of the EC50, by convention in mol/L. Low values mean a high EC50, high ones a low EC50. One may read the Emax as the size of the effect at its maximum, as opposed to the concentration needed. The compound `COc1ccc(C(=O)N(CC(C)(C)C#N)c2ccccn2)c(N2CCC(COc3cccc(C(CC(=O)O)C4CC4)c3)CC2)c1` (configuration not stated) had a pEC50 in series [1] of 6.80. Moreover, the maximal response (Emax) in series [2] amounted to 108%.
For the compound `COc1ccc(C(=O)N(CC(C)(C)OC)c2ccccn2)c(N2CCC(COc3cccc(C(CC(=O)O)C4CC4)c3)CC2)c1` (configuration not stated), the pEC50 in series [1] is 7.00. The Emax in series [2] turned out to be 105%.
Regarding `COc1ccc(C(=O)N(CC(C)(C)C)c2ccccn2)c(N2CCC(COc3cccc(C(CC(=O)O)C4CC4)c3)CC2)c1` (configuration not stated), the pEC50 in series [1] was 7.59. Moreover, the Emax in series [2] was 110%.
For the compound `COc1ccc(CCCC(C)(C)C)c(-c2ccc(COc3cccc(C(CC(=O)O)C4CC4)c3)cc2)c1` (configuration not stated), in series [1], the pEC50 is 6.39. In series [2], this compound yielded an Emax of 105%.
Turning to `COc1ccc(C)c(N2CCC(COc3cccc(C(CC(=O)O)C4CC4)c3)CC2)c1` (configuration not stated), the pEC50 in series [1] is 6.57. Further, in series [2], the Emax was 113%. Moreover, in series [3], the viability at 24 h, 30 µM came out at 67.4%. Moreover, the Activity with HepG2 is given as 8.3%.
`COc1ccc(C(=O)N(CC(C)(C)C)c2cccc(C)n2)c(N2CCC(COc3cccc(C(CC(=O)O)C4CC4)c3)CC2)c1` (configuration not stated) gave a pEC50 in series [1] of 7.77. This compound had an Emax in series [2] of 109%.
Compound `COc1ccc(C(=O)N(CC(C)C)c2ccccn2)c(N2CCC(COc3cccc(C(CC(=O)O)C4CC4)c3)CC2)c1` (configuration not stated) showed a pEC50 in series [1] of 7.54. Moreover, in series [2], the Emax is 107%.
`COc1ccc(CN(C)CC(C)C)c(N2CCC(COc3cccc(C(CC(=O)O)C4CC4)c3)CC2)c1` (configuration not stated) gave a pEC50 in series [1] of 6.00. This compound also yielded an Emax in series [2] of 110%. In addition, the viability at 24 h, 30 µM in series [3] was 80.7%. In addition, in the series on HepG2, the Activity was -1.1%.
In the case of `COc1ccc(C(=O)N(CC(C)(C)C)c2cccc(C)n2)c(N2CCC(COc3cccc(C4(CC(=O)O)COC4)c3)CC2)c1`, in series [1], the pEC50 is 6.08. Also, in series [2], the Emax came to 115%.
In the case of `COc1ccc(C(=O)N(CC(C)(C)C)c2cccc(C)n2)c(N2CCC(COc3cc([C@H](CC(=O)O)C4CC4)ccn3)CC2)c1`, in series [1], the pEC50 is 7.08. For the same compound, the Emax in series [2] came out at 109%.
For the compound `COc1ccc(C(=O)N(C)CC(C)(C)C)c(N2CCC(COc3cccc(C(CC(=O)O)C4CC4)c3)CC2)c1` (configuration not stated), in series [1], the pEC50 is 7.00. This compound also yielded an Emax in series [2] of 107%. Besides, in series [3], the viability at 24 h, 30 µM came to 82.2%. The Activity in the series with HepG2 is listed as 6.6%.
In turn, `COc1ccc(CCCC(C)(C)C)c(N2CC(COc3cccc(C(CC(=O)O)C4CC4)c3)C2)c1` (configuration not stated) had a pEC50 in series [1] of 6.60.
Consider `COCC(CC(=O)O)c1cccc(OCC2CCN(c3cc(OC)ccc3C(=O)N(CC(C)(C)C)c3cccc(C)n3)CC2)c1` (configuration not stated), for which the pEC50 in series [1] is 6.92. Also, the Emax in series [2] was found to be 104%.
In series [1], `COc1ccc(CCC(C)(C)C)c(N2CCC(COc3cccc(C(CC(=O)O)C4CC4)c3)CC2)c1` (configuration not stated) gave a pEC50 of 7.47. Moreover, the Emax in series [2] was 110%. Further, in series [3], the viability at 24 h, 30 µM worked out at 0.1%. Also, the Activity in the series with HepG2 was 67.3%.
In turn, `COc1ccc(CCC(C)(C)O)c(N2CCC(COc3cccc(C(CC(=O)O)C4CC4)c3)CC2)c1` (configuration not stated) gave a pEC50 in series [1] of 6.01. This compound had an Emax in series [2] of 109%. Besides, the viability at 24 h, 30 µM in series [3] was 76.6%. For the same compound, the Activity with HepG2 was determined as 0.1%.
In turn, `COc1ccc(F)c(-c2ccc(COc3cccc([C@@H](CC(=O)O)C4CC4)c3)nc2CC(C)(C)C)c1` showed a pEC50 in series [1] of 6.82. This compound yielded an Emax in series [2] of 66%.
On to `COc1ccc(C(=O)N(CC(C)(C)C)c2cccc(C)n2)c(N2CCC(COc3cccc(C(CC(=O)O)OC)c3)CC2)c1` (configuration not stated), for which, in series [1], the pEC50 is 7.21. The compound further displayed an Emax in series [2] of 109%.
For `COc1ccc(C(=O)N(CC(C)(C)C)c2cccc(C)n2)c(N2CCC(COc3cc(C(CC(=O)O)C4CC4)ccn3)CC2)c1` (configuration not stated) the same measures were 7.77 and 112%.
The like results for `CCOC(CC(=O)O)c1cccc(OCC2CCN(c3cc(OC)ccc3C(=O)N(CC(C)(C)C)c3cccc(C)n3)CC2)c1` (configuration not stated) were, in that order, 7.13 and 104%.
